Data taken from PubChem BioAssay (NCI).
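Compound exposure: 48 hours, 5 concentrations, 96-well plates. Here, GI50 denotes the concentration required for 50% inhibition of growth. Definition used: TGI = concentration required for complete inhibition of growth.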

What was measured:
Assay in all cases: inhibition of tumour cell growth, NCI panel, 48 h
HS 578T breast = system: HS 578T breast
HL-60(TB) leukemia = system: HL-60(TB) leukemia
NCI/ADR-RES ovarian = system: NCI/ADR-RES ovarian
NCI-H226 lung = system: NCI-H226 lung
CAKI-1 renal = system: CAKI-1 renal
LOX IMVI melanoma = system: LOX IMVI melanoma
DU-145 prostate = system: DU-145 prostate
COLO 205 colon = system: COLO 205 colon
T-47D breast = system: T-47D breast
SK-MEL-5 melanoma = system: SK-MEL-5 melanoma
SNB-75 CNS = system: SNB-75 CNS
A498 renal = system: A498 renal
HCC-2998 colon = system: HCC-2998 colon
SK-OV-3 ovarian = system: SK-OV-3 ovarian
OVCAR-8 ovarian = system: OVCAR-8 ovarian
K-562 leukemia = system: K-562 leukemia
MCF7 breast = system: MCF7 breast
ACHN renal = system: ACHN renal
SK-MEL-2 melanoma = system: SK-MEL-2 melanoma
OVCAR-5 ovarian = system: OVCAR-5 ovarian
HCT-116 colon = system: HCT-116 colon
CCRF-CEM leukemia = system: CCRF-CEM leukemia
U251 CNS = system: U251 CNS
SNB-19 CNS = system: SNB-19 CNS
A549 NSCLC = system: A549 NSCLC
MOLT-4 leukemia = system: MOLT-4 leukemia
PC-3 prostate = system: PC-3 prostate
HCT-15 colon = system: HCT-15 colon
SF-539 CNS = system: SF-539 CNS
OVCAR-4 ovarian = system: OVCAR-4 ovarian
MALME-3M melanoma = system: MALME-3M melanoma
UACC-257 melanoma = system: UACC-257 melanoma
SF-268 CNS = system: SF-268 CNS
BT-549 breast = system: BT-549 breast
SN12C renal = system: SN12C renal
TK-10 renal = system: TK-10 renal
SK-MEL-28 melanoma = system: SK-MEL-28 melanoma
SW-620 colon = system: SW-620 colon
M14 melanoma = system: M14 melanoma
UACC-62 melanoma = system: UACC-62 melanoma
NCI-H460 lung = system: NCI-H460 lung
NCI-H23 lung = system: NCI-H23 lung
IGROV1 ovarian = system: IGROV1 ovarian
SR leukemia = system: SR leukemia
RPMI-8226 leukemia = system: RPMI-8226 leukemia
UO-31 renal = system: UO-31 renal
NCI-H522 lung = system: NCI-H522 lung
KM12 colon = system: KM12 colon
OVCAR-3 ovarian = system: OVCAR-3 ovarian
MDA-MB-231 breast = system: MDA-MB-231 breast
EKVX NSCLC = system: EKVX NSCLC
HOP-62 NSCLC = system: HOP-62 NSCLC
HT29 colon = system: HT29 colon
SF-295 CNS = system: SF-295 CNS

SMILES: O=C(NCc1cn(Cc2cccc(Oc3ccccc3)c2)nn1)c1cccnc1Nc1ccccc1
- GI50 (HS 578T breast): 3.68 µM
- TGI (HS 578T breast): > 100 µM
- GI50 (HL-60(TB) leukemia): 3.74 µM
- TGI (HL-60(TB) leukemia): 19.5 µM
- GI50 (NCI/ADR-RES ovarian): 2.47 µM
- TGI (NCI/ADR-RES ovarian): > 100 µM
- GI50 (NCI-H226 lung): 3.24 µM
- TGI (NCI-H226 lung): > 100 µM
- GI50 (CAKI-1 renal): 5.45 µM
- TGI (CAKI-1 renal): > 100 µM
- GI50 (LOX IMVI melanoma): 4.54 µM
- TGI (LOX IMVI melanoma): > 100 µM
- GI50 (DU-145 prostate): 3.94 µM
- TGI (DU-145 prostate): 33.8 µM
- GI50 (COLO 205 colon): 2.79 µM
- TGI (COLO 205 colon): 5.75 µM
- GI50 (T-47D breast): 5.4 µM
- TGI (T-47D breast): 63.2 µM
- GI50 (SK-MEL-5 melanoma): 3.89 µM
- TGI (SK-MEL-5 melanoma): 28.3 µM
- GI50 (SNB-75 CNS): 1.94 µM
- TGI (SNB-75 CNS): 9.96 µM
- GI50 (A498 renal): 1.88 µM
- TGI (A498 renal): 8.19 µM
- GI50 (HCC-2998 colon): 3.7 µM
- TGI (HCC-2998 colon): 21.8 µM
- GI50 (SK-OV-3 ovarian): 3.79 µM
- TGI (SK-OV-3 ovarian): 15.1 µM
- GI50 (OVCAR-8 ovarian): 4.39 µM
- TGI (OVCAR-8 ovarian): > 100 µM
- GI50 (K-562 leukemia): 3.69 µM
- TGI (K-562 leukemia): > 100 µM
- GI50 (MCF7 breast): 3.67 µM
- TGI (MCF7 breast): > 100 µM
- GI50 (ACHN renal): 5.67 µM
- TGI (ACHN renal): > 100 µM
- GI50 (SK-MEL-2 melanoma): 6.05 µM
- TGI (SK-MEL-2 melanoma): 75.1 µM
- GI50 (OVCAR-5 ovarian): 5.73 µM
- TGI (OVCAR-5 ovarian): > 100 µM
- GI50 (HCT-116 colon): 3.4 µM
- TGI (HCT-116 colon): 23.5 µM
- GI50 (CCRF-CEM leukemia): 3.34 µM
- TGI (CCRF-CEM leukemia): > 100 µM
- GI50 (U251 CNS): 3.61 µM
- TGI (U251 CNS): 18.9 µM
- GI50 (SNB-19 CNS): 3.27 µM
- TGI (SNB-19 CNS): > 100 µM
- GI50 (A549 NSCLC): 4.81 µM
- TGI (A549 NSCLC): 95.2 µM
- GI50 (MOLT-4 leukemia): 3.74 µM
- TGI (MOLT-4 leukemia): > 100 µM
- GI50 (PC-3 prostate): 3.27 µM
- TGI (PC-3 prostate): > 100 µM
- GI50 (HCT-15 colon): 3.81 µM
- TGI (HCT-15 colon): > 100 µM
- GI50 (SF-539 CNS): 3.1 µM
- TGI (SF-539 CNS): 8.6 µM
- GI50 (OVCAR-4 ovarian): 5.42 µM
- TGI (OVCAR-4 ovarian): > 100 µM
- GI50 (MALME-3M melanoma): 16.1 µM
- TGI (MALME-3M melanoma): > 100 µM
- GI50 (UACC-257 melanoma): 14.2 µM
- TGI (UACC-257 melanoma): 86.4 µM
- GI50 (SF-268 CNS): 3.22 µM
- TGI (SF-268 CNS): 37.5 µM
- GI50 (BT-549 breast): 2.8 µM
- TGI (BT-549 breast): 8.53 µM
- GI50 (SN12C renal): 4.3 µM
- TGI (SN12C renal): 51.2 µM
- GI50 (TK-10 renal): 4.3 µM
- TGI (TK-10 renal): 28.4 µM
- GI50 (SK-MEL-28 melanoma): 4.93 µM
- TGI (SK-MEL-28 melanoma): > 100 µM
- GI50 (SW-620 colon): 3.97 µM
- TGI (SW-620 colon): > 100 µM
- GI50 (M14 melanoma): 2.86 µM
- TGI (M14 melanoma): 9.86 µM
- GI50 (UACC-62 melanoma): 3.02 µM
- TGI (UACC-62 melanoma): 33.8 µM
- GI50 (NCI-H460 lung): 2.85 µM
- TGI (NCI-H460 lung): 10.5 µM
- GI50 (NCI-H23 lung): 3.73 µM
- TGI (NCI-H23 lung): > 100 µM
- GI50 (IGROV1 ovarian): 5.86 µM
- TGI (IGROV1 ovarian): > 100 µM
- GI50 (SR leukemia): 2.57 µM
- TGI (SR leukemia): > 100 µM
- GI50 (RPMI-8226 leukemia): 3.61 µM
- TGI (RPMI-8226 leukemia): > 100 µM
- GI50 (UO-31 renal): 2.49 µM
- TGI (UO-31 renal): > 100 µM
- GI50 (NCI-H522 lung): 2.11 µM
- TGI (NCI-H522 lung): 5.06 µM
- GI50 (KM12 colon): 3.63 µM
- TGI (KM12 colon): 46.4 µM
- GI50 (OVCAR-3 ovarian): 2.28 µM
- TGI (OVCAR-3 ovarian): 5.46 µM
- GI50 (MDA-MB-231 breast): 2.25 µM
- TGI (MDA-MB-231 breast): 5.97 µM
- GI50 (EKVX NSCLC): 5.18 µM
- TGI (EKVX NSCLC): > 100 µM
- GI50 (HOP-62 NSCLC): 5.58 µM
- TGI (HOP-62 NSCLC): > 100 µM
- GI50 (HT29 colon): 3.65 µM
- TGI (HT29 colon): 11.6 µM
- GI50 (SF-295 CNS): 3.69 µM
- TGI (SF-295 CNS): > 100 µM
